# Key:
# Canis familiaris = assay: Antiplatelet activity in iv dosed dog assessed as platelet aggregation; type: functional, organism-based; settings: Canis lupus familiaris
# Mus musculus [1] = assay: Sedative activity in mouse assessed as sleeping time at 300 mg/kg, ip; type: functional
# Plasmodium falciparum = assay: Antimalarial activity against plasmodium falciparum 3D7 assessed as bacterial growth inhibition; type: functional, organism-based
# SR = assay: Anticancer activity against human SR cell assessed as cell growth inhibition measured after 24 hrs by SRB assay; type: functional
# A549 = assay: Anticancer activity against human A549 cell assessed as cell growth inhibition measured after 24 hrs by SRB assay; type: functional
# MOLT-4 = assay: Anticancer activity against human MOLT-4 cell assessed as cell growth inhibition measured after 24 hrs by SRB assay; type: functional
# RXF 393 = assay: Anticancer activity against human RXF 393 cell assessed as cell growth inhibition measured after 24 hrs by SRB assay; type: functional
# UO-31 = assay: Anticancer activity against human UO-31 cell assessed as cell growth inhibition measured after 24 hrs by SRB assay; type: functional
# K562 = assay: Anticancer activity against human K562 cell assessed as cell growth inhibition measured after 24 hrs by SRB assay; type: functional
# [2] = Anticancer activity against human CNS cell assessed as cell growth inhibition measured after 24 hrs by SRB assay; type: functional
# MDA-MB-231 = assay: Anticancer activity against human MDA-MB-231 cells assessed as cell growth inhibition incubated for 24 hrs by MTT assay; type: functional, cell-based; settings: MDA-MB-231, 24 h
# HeLa = assay: Anticancer activity against human HeLa cells assessed as cell growth inhibition incubated for 24 hrs by MTT assay; type: functional, cell-based
# Mus musculus [3] = assay: Analgesic activity in phenylbenzoquinone induced mouse assessed as reduction in writhing at 10 mg/kg, po measured after 1 hrs by writhing test relative to control; type: functional
# Mus musculus [4] = assay: Analgesic activity in acetic acid peritonitis induced mouse assessed as reduction in writhing at 10 mg/kg, po measured after 1 hrs by writhing test relative to control; type: functional
# Oryctolagus cuniculus = assay: Antihypertensive activity in po dosed rabbit assessed as decrease in 30mmhg of systolic blood pressure measured after 4 to 6 hrs; type: functional; settings: time 4-6 hrs
# [5] = system: Human immunodeficiency virus; assay: Antiviral activity against HIV infected in human H9 cells; type: functional, organism-based; settings: Human immunodeficiency virus 1, H9
# [6] = Therapeutic index, ratio of IC50 for antiviral activity against HIV infected in human H9 cells to EC50 for antiviral activity against HIV infected in human H9 cells; type: toxicity, cell-based; settings: human immunodeficiency virus, H9 cells infected with HIV; read-out: Ratio IC50/EC50
# [7] = system: Human immunodeficiency virus 1; assay: Therapeutic index, ratio of IC50 for antiviral activity against HIV1 to EC50 for antiviral activity against HIV1; type: functional
# [8] = system: Human immunodeficiency virus 1; assay: Antiviral activity against HIV1; type: functional, organism-based
# CCRF-CEM = assay: Anticancer activity against human CCRF-CEM cell assessed as cell growth inhibition measured after 120 hrs; type: functional, cell-based
# WIL2 = assay: Anticancer activity against human WIL2 cell assessed as cell growth inhibition measured after 120 hrs; type: functional, cell-based; settings: WIL2, 120 h
# Mus musculus [9] = species: Mus musculus; assay: Sedative hypnotic activity in mouse; type: functional; set-up: concentration or dose not given beside the values
# Rattus norvegicus [10] = assay: Antiinflammatory activity in carrageenan induced rat at assessed as reduction in paw edema 50 mg/kg, ip measured after […] relative to control; type: functional; set-up: scale not given: the % may be the effect or the level left
# Mus musculus [11] = assay: Sedative activity in mouse assessed as sleeping time at 100 mg/kg, ip; type: functional
# Mus musculus [12] = assay: Anticonvulsant activity in mouse at 100 mg/kg, po measured after 30 mins relative to control; type: functional; settings: 0.5 h
# Mus musculus [13] = assay: Sedative activity in mouse assessed as sleeping time at 30 mg/kg, ip; type: functional
# Mus musculus [14] = assay: Anticonvulsant activity in ip dosed mouse assessed as reduction in tonus phase; type: functional
# Mus musculus [15] = assay: Anticonvulsant activity in ip dosed mouse assessed as reduction in clonus phase; type: functional
# [16] = target: Histamine H2 receptor (Homo sapiens) (UniProt P25021); assay: Inhibition of histamine h2 (unknown origin)
# Rattus norvegicus [17] = assay: Antiinflammatory activity in rat at assessed as reduction in paw edema at 200 mg/kg relative to control; type: functional
# Vaccinia virus [18] = assay: Antiviral activity against Vaccinia virus infected in human MT4 cells measured after 5 days by MTT assay; type: functional, organism-based; settings: Orthopoxvirus vaccinia, MT4, 120 h
# Vaccinia virus [19] = assay: Antiviral activity against Vaccinia virus infected in human E6SM cells; type: functional; settings: Orthopoxvirus vaccinia
# Mus musculus [20] = assay: Anticonvulsant activity in mouse at 100 mg/kg, ip by MES test relative to control; type: functional
# Mus musculus [21] = assay: Anticonvulsant activity in PTZ induced mouse at 100 mg/kg, ip relative to control; type: functional
# [22] = target: 5-hydroxytryptamine receptor 2A (Homo sapiens, UniProt P28223); assay: Inhibition of 5-HT2A (unknown origin) assessed as inhibition constant
# Rattus norvegicus [23] = assay: Antiinflammatory activity in rat at assessed as reduction in paw edema relative to control; type: functional
# Chain of Histamine H2 receptor (Homo sapiens) (P25021 whole entry): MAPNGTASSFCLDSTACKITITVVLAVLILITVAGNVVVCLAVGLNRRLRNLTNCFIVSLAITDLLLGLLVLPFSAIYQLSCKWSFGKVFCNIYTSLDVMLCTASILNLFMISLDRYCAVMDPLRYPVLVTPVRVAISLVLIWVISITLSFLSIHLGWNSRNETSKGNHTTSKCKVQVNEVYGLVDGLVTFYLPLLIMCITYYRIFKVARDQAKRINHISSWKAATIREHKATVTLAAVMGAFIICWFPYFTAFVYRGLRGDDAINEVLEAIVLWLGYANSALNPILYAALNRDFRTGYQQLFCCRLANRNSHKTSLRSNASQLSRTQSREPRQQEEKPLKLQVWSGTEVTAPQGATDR
# Chain of 5-hydroxytryptamine receptor 2A (P28223 whole entry): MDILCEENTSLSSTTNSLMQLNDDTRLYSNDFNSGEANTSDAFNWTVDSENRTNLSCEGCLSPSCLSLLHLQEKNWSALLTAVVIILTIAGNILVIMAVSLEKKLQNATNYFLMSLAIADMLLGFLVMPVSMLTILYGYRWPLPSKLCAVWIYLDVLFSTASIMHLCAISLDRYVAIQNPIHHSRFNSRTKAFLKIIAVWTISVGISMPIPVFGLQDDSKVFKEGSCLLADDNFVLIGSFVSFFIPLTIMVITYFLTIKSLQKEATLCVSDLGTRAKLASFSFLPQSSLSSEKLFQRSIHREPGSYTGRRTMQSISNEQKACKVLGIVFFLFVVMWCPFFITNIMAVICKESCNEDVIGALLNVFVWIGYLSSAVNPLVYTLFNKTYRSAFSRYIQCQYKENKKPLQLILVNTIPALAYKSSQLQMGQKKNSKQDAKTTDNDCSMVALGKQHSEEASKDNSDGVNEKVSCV
smiles,measurement,setting,value
CCCCS(=O)(=O)NC(CNC(=O)c1ccc2[nH]c(=O)n(CCC3CCNCC3)c(=O)c2c1)C(=O)O (stereo not given),IC50,Canis familiaris,210 nM
O=c1c2ccccc2nc(-c2ccncc2)n1CCCN1CCOCC1,Time,Mus musculus [1],7.1 min
C[C@@H]1CC[C@H]2[C@@H](C)C(=O)O[C@@H]3O[C@@]4(C)CC[C@@H]1[C@]32OO4 [ARTEMISININ],EC50,Plasmodium falciparum,2.4 nM
Nc1nc2[nH]cnc2c(=S)[nH]1 [THIOGUANINE],GI50,SR,1620 nM
same,GI50,A549,3550 nM
same,GI50,MOLT-4,9120 nM
same,GI50,RXF 393,759 nM
same,GI50,UO-31,1480 nM
same,GI50,K562,195 nM
same,GI50,[2],4900 nM
CCCCS(=O)(=O)NC(CCCc1ccc2[nH]c(=O)n(CCC3CCNCC3)c(=O)c2c1)C(=O)O (stereo not given),IC50,Canis familiaris,210 nM
COc1cccc2c(=O)n(Cc3ccccc3)c(SCCN3CCOCC3)nc12,IC50,MDA-MB-231,1850 nM
same,IC50,HeLa,1850 nM
CC(=O)Oc1ccccc1C(=O)O [ASPIRIN],inhibition in vivo at 10 mg/kg,Mus musculus [3],20%
same,inhibition in vivo at 10 mg/kg,Mus musculus [4],60%
CCOC(=O)c1c(C)cc2nc(COC(=O)NC(C)C)n(-c3ccccc3Cl)c(=O)c2c1C,ED30,Oryctolagus cuniculus,0.42 mg/kg
COc1cc2nc(-c3ccccc3F)nc(O)c2cc1OC,EC50,[5],10900 nM
same,IC50,[5],100000 nM
same,selectivity ratio,[6],9.17
Cc1ccc2c(c1)/C(=N\NC(=O)CSc1nc3ccccc3c(=O)n1-c1ccccc1)C(=O)N2,Ratio IC50/EC50,[7],>1.47
same,GI50,RXF 393,1660 nM
same,GI50,UO-31,209 nM
same,GI50,[2],209 nM
same,EC50,[8],68100 nM
same,IC50,[8],> 100000 nM
COC(=O)CCC(NC(=O)c1ccc(N(C)Cc2ccc3nc(C)[nH]c(=O)c3c2)s1)C(=O)OC (stereo not given),IC50,CCRF-CEM,2100 nM
same,IC50,WIL2,1800 nM
Cc1cccc(-n2c(=O)c3ccccc3n3c(C)nnc23)c1,Activity,Mus musculus [9],4%
O=c1c2c(Br)cc(Br)cc2nc(-c2ccccc2)n1-c1nc2ccccc2s1,Activity,Rattus norvegicus [10],21.3%
CCc1nnc2n(-c3cccc(C)c3)c(=O)c3ccccc3n12,Activity,Mus musculus [9],4%
Cc1ccccc1-n1c(C)nc2ccccc2c1=O [METHAQUALONE],Time,Mus musculus [11],119.7 min
same,Activity,Mus musculus [12],20%
same,Time,Mus musculus [13],5.5 min
O=c1c2ccccc2nc(-c2cccnc2)n1-c1ccccc1F,Time,Mus musculus [1],395.5 min
CCNC(=O)OCc1nc2cc(C)c(C(=O)OCC)c(C)c2c(=O)n1-c1ccccc1Cl,ED30,Oryctolagus cuniculus,0.35 mg/kg
Oc1nc(-c2ccc(Br)cc2)nc2cc3c(cc12)OCO3,ED50,Mus musculus [14],27.8 µmol/kg
same,ED50,Mus musculus [15],32.7 µmol/kg
CNC(=C[N+](=O)[O-])NCCSCc1ccc(CN(C)C)o1,ED50,[16],12.3 mg/kg
same,pKb,[16],7.06
Nc1ccc(-c2nc(O)c3cc4c(cc3n2)OCO4)cc1,ED50,Mus musculus [14],21.6 µmol/kg
same,ED50,Mus musculus [15],36.5 µmol/kg
O=C(O)c1ccc(Cl)cc1-n1c(/C=C/c2ccc(F)cc2)nc2ccccc2c1=O,inhibition in vivo at 200 mg/kg,Rattus norvegicus [17],62.2%
Cc1cccc(-n2c(=O)c3ccccc3n3cnnc23)c1,Activity,Mus musculus [9],4%
O=c1[nH]cc(F)c(=O)[nH]1 [FLUOROURACIL],GI50,SR,1620 nM
same,GI50,A549,1050 nM
same,GI50,MOLT-4,17000 nM
same,GI50,RXF 393,55000 nM
same,GI50,UO-31,6760 nM
same,GI50,K562,407 nM
same,GI50,[2],42700 nM
CCc1nc(-n2c(-c3ccccc3)nc3ccc(Br)cc3c2=O)nc(N)c1-c1ccc(Cl)cc1,IC50,Vaccinia virus [18],0.424 µg/mL
same,MIC,Vaccinia virus [19],1.92 µg/mL
CCn1c(SCC(=O)NN2C(=O)C(C)S/C2=N\c2ccccc2)nc2ccccc2c1=O (stereo not given),Activity,Mus musculus [20],66%
same,Activity,Mus musculus [21],66%
O=C(c1ccc(F)cc1)C1CCN(CCn2cnc3c(c2=O)CCCC3)CC1,Ki,[22],7.59 nM
O=C(O)c1ccc(Cl)c(-n2c(/C=C/c3ccc(F)cc3)nc3ccccc3c2=O)c1,inhibition in vivo at 200 mg/kg,Rattus norvegicus [17],62.2%
CCCCC1C(=O)N(c2ccccc2)N(c2ccccc2)C1=O [PHENYLBUTAZONE],inhibition in vivo at 10 mg/kg,Mus musculus [3],25%
same,inhibition (INH),Rattus norvegicus [23],38.9%
same,inhibition in vivo at 10 mg/kg,Mus musculus [4],11%
O=c1c2ccccc2nc(-c2ccncc2)n1-c1ccccc1F,Time,Mus musculus [1],699.7 min
same,Time,Mus musculus [11],111.2 min
same,Time,Mus musculus [13],3.5 min
Nc1nc(O)c2c(Cl)c(CNc3ccc(C(=O)NC(CCC(=O)O)C(=O)O)cc3)ccc2n1 (stereo not given),IC50,CCRF-CEM,1800 nM
same,IC50,WIL2,1800 nM
CCOC(=O)c1c(C)cc2nc(COC(=O)NC)n(-c3ccccc3Cl)c(=O)c2c1C,ED30,Oryctolagus cuniculus,2.8 mg/kg
